Paper PMC12801355, “Peptide Amphiphiles Hitchhike on Endogenous Biomolecules for Enhanced Cancer Imaging and Therapy” (Advanced Materials (Deerfield Beach, Fla.), 2025)
Read-outs that look alike come from different tables or passages of the source. *1 amine or outer side, *2 acyl side, *3 side chain or, on linkers, in order; H or OH if unused. Where a SMILES comes first, the peptide text is derived from it. Bridges are numbered along the chain shown (N, C = ends). Roman numbers before positions name the chains, in order. [ ]: non-standard residue; d: D form. The star is where a group is joined. Hexanoyl(6-succinimido-3yl) = O=C1CC([*:1])C(=O)N1CCCCCC(=O)[*:2]; Dolaproine = CO[C@@H]([C@@H]1CCCN1)[C@@H](C)C(=O)O; Dil = CC[C@H](C)[C@H](NC)[C@@H](CC(=O)O)OC; PABC = O=C(OCc1ccc(N[*:1])cc1)[*:2]; Palmitoyl = CCCCCCCCCCCCCCCC(=O)*; X1 = C[C@@H](N*)[C@@H](O)c1ccccc1; Cit = NC(=O)NCCC[C@H](N)C(=O)O; NMeV = CN[C@H](C(=O)O)C(C)C

Columns and labels:
[1] = test system: LPs (HDL, LDL, VLDL) and albumin in pooled human plasma; assay: FPLC of PAs in 10% human plasma; settings: MMAE conjugated SA‐E, 250 µM, detection at 250 nm
Procedure: FPLC experiments were performed using SA‐E, SA‐K, or No‐SA conjugated with ICG or SA‐E conjugated with MMAE at a final concentration of 250 µM in filtered PBS (10 mM, pH 7.4) with or without human plasma or purified LPs or albumin. For analysis of SA‐E interactions with purified LPs, VLDL, LDL, HDL, and human serum albumin were diluted in filtered PBS to approximate concentrations found in 10% human plasma: 0.0025, 0.13, 0.05, and 5mg mL^−1, respectively. SA‐E was incubated with the purified LP/protein mixture for 30 min at 37 °C before injection. For analysis of plasma interactions, PAs or No‐SA were incubated in PBS containing 10% pooled human plasma for 30 min at 37 °C before injection. The total volume injected for all samples was 400 µL. All data was collected on an ÄKTA pure chromatography system using the following running conditions: size exclusion chromatography on a Superose 6 Increase 10/300 GL column with a column volume (CV) of 30 mL, pre‐column pressure limit of 5 MPa, delta‐column pressure limit of 2.6 MPa, flow rate of 0.75 mL min^−1, in 100% PBS. The sample running method included first an equilibration step before injection of the sample with 100% PBS for 0.5 CV, followed by sample application via 1 mL capillary loop in 100% PBS, and finished with a linear elution consisting of 2 CV collected in 1 mL fractions. The UV‐Vis detector wavelengths were 250, 280, and 700 nm to detect MMAE, all proteins/LPs, and ICG, respectively.

HCT‐116 tumor = test system: HCT‐116 tumor
Procedure: (§1) All experiments were approved by the Oregon Health and Science University (OHSU) Institutional Animal Care and Use Committee (IACUC) (TR01_IP00000674) and conformed to the guidelines set by the United States Animal Welfare Act and the National Institutes of Health. Mice were aged between 3 and 8 months and 20–30 g in weight and were housed in specific pathogen free cages. Human, mouse, or rat cells were injected into nude (The Jackson Laboratory, 002019), NSG mice (The Jackson Laboratory, 005557), Balb/c mice (The Jackson Laboratory, 000651), or C57Bl/6J mice (The Jackson Laboratory, 000664), as specified below. Cells were injected in 100 µL sterile DMEM at a concentration of 0.5–1×10^7 cells mL^−1, unless otherwise specified. For tumor accumulation and biodistribution studies, A375 cells were injected intradermally into the left ears of NSG mice (The Jackson Laboratory, 005557). MCF7 cells were injected into the mammary fat pad of NSG mice. HCT‐116, RG2, and HeLa (wild type or LDL‐R knockout) cells were subcutaneously injected into the left or both flanks of NSG mice. 4T1 cells were injected into the mammary fat pad of Balb/c mice. LLC1, MC38, and TRAMP‐C2 (wild type or SR‐B1 knockout) were injected into C57Bl/6J mice. Patient‐derived xenografts were generated by injecting the patient‐derived cancer cells subcutaneously into the left flank of NSG mice. ApoA1 and LDL‐R knockout mice were purchased from the Jackson Laboratory (002055 and 002207, respectively). MC38 cells were subcutaneously injected into both flanks of these mice. Apc^min and MMTV‐PyMT mice were purchased from the Jackson Laboratory (002020 and 002374). For antitumor activity studies, 4T1 cells were injected into the mammary fat pad of Balb/c mice. HCT‐116 and RG2 cells were subcutaneously injected into the left flanks of nude mice. For antitumor activity studies, HCT‐116 cells were injected in a 1:1 mixture of DMEM and Matrigel (Life Science 354263).
(§2) Mice were injected with 4T1, RG2, or HCT‐116 cells as described above. Mice were then treated intravenously with the free MMAE (0.1 or 0.3 mg kg^−1), SA‐E‐MMAE (0.3, 0.6, 0.8, or 1 mg kg^−1) or PBS (10 mM, pH 7.4). 5 doses were given every 2–3 days over 11 days. […] Tumor size and mouse weight were monitored 2–3 times per week until a humane endpoint (tumor size ≈2 cm or >20% body weight loss) or the study endpoint (18, 25, or 120 days for 4T1, RG2, and HCT‐116 studies, respectively). Tumor size was measured in two directions with a caliper rounded to the nearest tenth of a mm. Volume was calculated as a basic sphere of 4/3πr^3.

4T1 tumor = assay: Antitumor effect, 4T1 orthotopic mouse model
Procedure: as §1, §2

[2] = Fluorescence polarization of PA nanostructures; assay type: physicochemical; settings: ICG‐conjugated SA‐E (10 mol%) mixed with MMAE‐conjugated SA‐E (90 mol%), 200 µM total; mean ± SEM
Procedure: ICG (10 mol%) containing PA micelles were prepared by mixing ICG‐conjugated PAs with unconjugated or MMAE‐conjugated PAs to achieve a final concentration of 20 µM ICG‐conjugated PAs and 200 µM of total PAs. Aliquots of 100 µL were added to a 96‐well plate (3 wells for each PA). Fluorescence polarization measurements were performed using a microplate reader (TECAN Spark 20 M). The corrected parallel intensity (I par) and perpendicular intensity (Iper) were used to calculate the fluorescence anisotropy (r) using the following equation: r = […].

RG2 xenografts = assay: Antitumor effect, RG2 xenografts in nude mice; assay type: in vivo, mouse; settings: 1 mg kg^−1 IV, 5 doses
Procedure: All experiments were approved by the Oregon Health and Science University (OHSU) Institutional Animal Care and Use Committee (IACUC) (TR01_IP00000674) and conformed to the guidelines set by the United States Animal Welfare Act and the National Institutes of Health. Mice were aged between 3 and 8 months and 20–30 g in weight and were housed in specific pathogen free cages. Human, mouse, or rat cells were injected into nude (The Jackson Laboratory, 002019), NSG mice (The Jackson Laboratory, 005557), Balb/c mice (The Jackson Laboratory, 000651), or C57Bl/6J mice (The Jackson Laboratory, 000664), as specified below. Cells were injected in 100 µL sterile DMEM at a concentration of 0.5–1×10^7 cells mL^−1, unless otherwise specified. For tumor accumulation and biodistribution studies, A375 cells were injected intradermally into the left ears of NSG mice (The Jackson Laboratory, 005557). MCF7 cells were injected into the mammary fat pad of NSG mice. […]
as §2, with “above.” for “above. Mice were then treated intravenously with the free MMAE (0.1 or 0.3 mg kg^−1), SA‐E‐MMAE (0.3, 0.6, 0.8, or 1 mg kg^−1) or PBS (10 mM, pH 7.4). 5 doses were given every 2–3 days over 11 days.”

Question: What does the source list for `CCCCCCCCCCCCCCCC(=O)NCC(=O)NCC(=O)NCC(=O)N[C@@H](Cc1c[nH]cn1)C(=O)N[C@@H](C)C(=O)N[C@@H](C)C(=O)N[C@@H](CC(N)=O)C(=O)NCC(=O)N[C@@H](CCC(=O)O)C(=O)N[C@@H](CCC(=O)O)C(=O)N[C@@H](CSC1CC(=O)N(CCCCCC(=O)N[C@H](C(=O)N[C@@H](CCCNC(N)=O)C(=O)Nc2ccc(COC(=O)N(C)[C@H](C(=O)N[C@H](C(=O)N(C)[C@@H]([C@@H](C)CC)[C@@H](CC(=O)N3CCC[C@H]3[C@H](OC)[C@@H](C)C(=O)N[C@H](C)[C@@H](O)c3ccccc3)OC)C(C)C)C(C)C)cc2)C(C)C)C1=O)C(=O)N[C@@H](CCC(=O)O)C(=O)O` (some centres unmarked) [SA‐E‐MMAE] (I: Palmitoyl-GGGHAANGEECE-OH / II: V[Cit][PABC][NMeV]V[Dil][Dolaproine]-X1; linker I:11-II:N via Hexanoyl(6-succinimido-3yl); C-terminus assumed)?
Answer: plasma component bound (FPLC) [1]: assembled with HDL; overall survival (HCT‐116 tumor; 0.8 mg kg^−1 IV, 5 doses, n = 4, log‐rank): significantly improved the overall survival; effect on tumor size (HCT‐116 tumor; 0.8 mg kg^−1 of MMAE IV, days 11, 14, 17, 19, 21, all mice, n = 4): reduction in the tumor size; average tumor volume (HCT‐116 tumor; day 21, end of treatment): ≈ 150 mm^3; average tumor volume (HCT‐116 tumor; day 33): ≈ 40 mm^3; tumor‐free mice (HCT‐116 tumor; day 120): one mouse remained tumor‐free on day 120; tumor growth reduction (4T1 tumor; 0.6 mg kg^−1 (based on MMAE) IV, 5 doses over 11 days, n = 5, versus free MMAE and PBS): ≈ 75%; body weight (4T1 tumor; 0.6 mg kg^−1 IV, 5 doses): no significant weight loss; fluorescence anisotropy of ICG in micelles [2]: 0.188 ± 0.002; reduction in the tumor volume (RG2 xenografts; n = 4, compared to the control): around 80%; body weight (RG2 xenografts; at the beginning of the therapy, overall tolerated): slight weight loss
